Results: article PMC4856263, “Probing the ATP Site of GRP78 with Nucleotide Triphosphate Analogs” (PLoS ONE, 2016)

Key:
[1] = target: T1, GRP78ATPase (ATPase domain of human GRP78, residues 26–407) (Homo sapiens, UniProt P11021); test: Surface plasmon resonance (SPR) binding of nucleotides to immobilized GRP78ATPase; conditions: for binding to GRP78ATPase upon removal of Mg++ (in words): 5 mM EDTA; for Kd: 25 °C, mean ± SD, n = 3
T1 construct: GRP78ATPase (residues 26–407) was amplified from the full-length human GRP78; hexahistidine tag (pET28-MHL vector) (N); made in house; host or cells: E. coli BL-21(DE3)
T1 sequence (P11021 26-407): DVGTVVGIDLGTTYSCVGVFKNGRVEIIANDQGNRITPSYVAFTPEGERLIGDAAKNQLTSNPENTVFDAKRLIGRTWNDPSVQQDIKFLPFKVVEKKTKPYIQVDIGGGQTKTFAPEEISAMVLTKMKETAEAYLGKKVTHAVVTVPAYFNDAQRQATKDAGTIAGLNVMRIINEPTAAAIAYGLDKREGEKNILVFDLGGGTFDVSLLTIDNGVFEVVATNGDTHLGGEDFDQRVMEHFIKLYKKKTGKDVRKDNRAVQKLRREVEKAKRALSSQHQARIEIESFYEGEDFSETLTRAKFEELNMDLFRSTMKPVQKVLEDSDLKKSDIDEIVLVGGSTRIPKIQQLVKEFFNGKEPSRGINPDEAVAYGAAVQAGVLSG
Experimental: Successful transformants were grown in Luria Bertani broth (Sigma) for 16 hrs at 37°C, and then transferred to Terrific Broth (Sigma). Growth at 37°C continued until the OD600 reached ~3.0, whereupon the temperature was lowered to 18°C and protein expression was induced by the addition of 0.1 mM isopropyl β-D-thiogalactopyranoside. Sixteen hours post-induction, cells were collected by centrifugation and resuspended in binding buffer (30 mM Tris-HCl pH 7.5, 200 mM NaCl, 1 mM β-ME) supplemented with 0.1% octylphenoxypolyethoxyethanol, 1 mM benzamidine, and 1 mM phenylmethanesulfonyl fluoride. Cells were lysed by French press, and the lysates were clarified by centrifugation. The supernatant was loaded on to a nickel-nitrilotriacetic acid column pre-equilibrated with binding buffer. Following a wash step with binding buffer containing 30 mM imidazole, the bound protein was eluted using a linear gradient from 30 to 500 mM imidazole. The eluate was then loaded on to a 26/60 Superdex 200 size exclusion column (GE Healthcare) pre-equilibrated with 30 mM Tris-HCl pH 7.5, 200 mM NaCl and 1 mM β-ME. Target protein-containing fractions were pooled and concentrated to 30 mg/ml using 10-kDa centrifugal filter units (Amicon), and then frozen in aliquots at -80°C until further use
SPR measurements were performed on Biacore T200 instrument (GE Healthcare) at 25 °C. Purified GRP78ATPase was immobilized on a CM5 sensorchip using NHS/EDC coupling following the manufacturer protocol to a level of ~7000 RUs, a reference surfaces without immobilized GRP78ATPase served as a control for nonspecific binding and refractive index changes. […] Buffer alone injections were used as blanks. […] The running buffer was 10 mM HEPES, pH 7.4, 150 mM NaCl, 0.005% P20 and 2 mM MgCl2. Biacore equilibrium responses recorded at the end of the association step were used to determine the dissociation constant (Kd). Nonspecific signal binding was removed by subtracting a reference channel without GRP78ATPase. Binding responses at the different concentrations were globally fitted to a saturation-binding model in Prism 6 (GraphPad Software Inc., California).
The effect of Mg^++ on binding affinities was explored by repeating the same SPR protocol with two additional running buffers. The first running buffer contained no addition of Mg^++ to determine the effect of Mg^++ co-purified with GRP78ATPase (10 mM HEPES, pH 7.4, 150 mM NaCl and 0.005% P20), and the second running buffer contained 5 mM EDTA to chelate any Mg^++ present in the system (10 mM HEPES, pH 7.4, 150 mM NaCl, 0.005% P20 and 5 mM EDTA).

[2] = tested on: human ecto-nucleotidases (NTPDase1, 2, 3, 8 and NPP1 and 3); conditions: cited from earlier work
[3] = SPR running buffer untreated (no addition of either MgCl2 or EDTA)
[4] = SPR running buffer with 5 mM EDTA (Mg++ removed)
[5] = SPR running buffer with 2 mM MgCl2

Structure (SMILES)	binding to GRP78ATPase upon removal of Mg++ (in words) [1]	Kd [1, 3] [µM]	Kd [1, 4] [µM]	Kd [1, 5] [µM]	affinity relative to ATP (in words) ([1]; purified GRP78ATPase, SPR)	hydrolysis by most human ecto-nucleotidases [2]
Nc1ncnc2c1ncn2[C@H]1C[C@H](O)[C@@H](COP(=O)(O)OP(=O)(O)OP(=O)(O)O)O1 [2'-deoxyATP]	nearly abolished the binding	750	> 1000			
Nc1ncnc2c1ccn2C1OC(COP(=O)(O)OP(=O)(O)OP(=O)(O)O)C(O)C1O (stereo not drawn) [7-deazaATP]		0.15	0.9	0.03		
Nc1ncnc2c1ncn2[C@@H]1O[C@H](COP(=O)(O)OP(=O)(O)OP(=O)(O)O)[C@@H](O)[C@H]1O [ATP]		0.78	9.8	0.45		
Nc1ncnc2c1ncn2[C@@H]1O[C@H](COP(=O)(O)OP(=O)(O)CP(=O)(O)O)[C@@H](O)[C@H]1O [AMPPCP]	almost abolished binding	52	> 1000	59	two-orders of magnitude lower	
Nc1ncnc2c1ncn2C1OC(COP(=O)(O)OP(=O)(O)C(Br)(Br)P(=O)(O)O)C(O)C1O (stereo not drawn) [AMPPCBrP]						cannot hydrolyze
